Patent US20070037253A1, “Methods and compositions for treatment of arthritis and cancer” (priority 2003, published 2007)
“Also recorded” adds a separate entry of the source. Where a SMILES comes first, the peptide text is derived from it.

Tests used:
MMP-9 = target: T1, MMP-9 (Oryctolagus cuniculus, UniProt P41246); assay: Gelatin zymography of HIG-82 culture supernatant pre-incubated with inhibitors (FIG. 4A); type: biochemical, rabbit; details: APMA-activated HIG-82 supernatant, 5 μM peptide, 1 h at 25° C.
T1 construct: endogenous in cells; host or cells: HIG-82 rabbit synoviocytes (ATCC CRL-1832), IL-1β-induced, culture supernatant
Method: Gelatinase activity in the supernatants from cells induced with IL-1β (5 ng) for 48 h was analyzed by gelatin zymography. (A) Supernatants (activated with final 1 mM APMA at 30° C. for 30 min) were pre-incubated with various inhibitors. (5 μM peptides or 1-2 μM Calbiochem MMP inhibitor II) for 1 h at 25° C. prior to zymographic analyses—Lane 1, without activation (no inhibitor); Lane 2, with activation (no inhibitor); Lanes 3-8, with activation plus inhibitor: 3, P-NT-II; 4, PIP [59-67] monomer; 5, PIP [57-67] dimer; 6, PIP [59-67] dimer; 7 and 8, positive control MMP Inhibitor II (Calbiochem) at 1 and 2 μM concentrations. (B) Rabbit synovial fibroblasts were stimulated by IL-1β in the presence or absence of 1-10 μM of PIP [59-67] dimer for 48 h. Culture supernatants were concentrated by centrifugation (Centricon centrifugal filter devices, M.W. cutoff 30,000) and activated with APMA (1 mM final) before measurement of gelatinase activity by gelatin zymography. Lanes: 1 (−peptide−APMA); 2 (−peptide+APMA); 3 (+1 μM peptide+APMA); 4 (+5 μM peptide+APMA); 5 (+7.5 μM peptide+APMA); 6 (+10 μM peptide+APMA). […]

sPLA2 gene transcript = assay: QRT-PCR relative mRNA expression in IL-1β-stimulated rabbit synovial fibroblasts; type: cell-based
Text: (§1) FIG. 5 is a view of the effect of peptide on the relative expression of MMP and sPLA2 genes. QRT-PCR was used for assessing relative mRNA expression levels of IL-1β-stimulated rabbit synovial fibroblast cells in the presence and absence of the candidate lead peptide PIP [59-67] dimer. The amount of each mRNA was obtained by quantitative RT-PCR. The relative levels of gene expression were normalized to the housekeeping gene (GAPDH). […] Values are expressed as ±S.E.
(§2) RNA isolation of cultured FLSCs: FLSCs were grown to 80% confluence on 12-well culture dishes and starved in a serum-free medium with 5 μM PIP [59-67] dimer for 2 h. The cells were then stimulated with 5 ng/mL IL-1β (Recombinant human, Chemicon, USA.) for 24 h, washed with cold PBS and total RNA isolated from peptide-treated (n=3) and untreated (n=3) FLSCs using RNeasy® mini kit. The RNA samples were subsequently treated with RNase-free Dnase-I at room temperature for 20 min and stored at −80° C. until use. The quality and quantity of extracted RNA was determined by spectrophotometry (Bio-Rad, USA). All RNA samples used for QRT-PCR experiments were of highest purity with A260/A280 ratios of 1.9-2.1. The integrity and relative contamination with residual genomic DNA was assessed by 1% denaturing agarose gel electrophoresis.
(§3) Quantitative Real Time RT-PCR (LightCycler): Quantitative fluorescence-based real-time PCR was carried out according to the manufacturer's instructions using the LightCycler system with LightCycler FastStart DNA Master^PLUS SYBR Green I kit (Roche Diagnostics, Germany) as an independent method for assessing relative gene expression. Reverse Transcription (RT) of RNA and QRT-PCR were performed as follows: single stranded cDNA was generated from 3 μg of total RNA, 200 μM nucleotides, 500 units Superscript II reverse transcriptase (Invitrogen) and 1.5 μM oligo(dT)15 primers in 50 μL reactions. Reverse transcription was stopped after 1 hr by heating to 95° C. for 5 min. The primers were designed by Primer3 software: http://bioinformatics.weizmann.ac.il/cgi-bin/primer/primer3.cgi and subsequently checked for specificity using BLAST: http://www.ncbi.nlm.nih.gov/genome/seq/HsBlast.htmL. All primers and probes were synthesized by 1st BASE Pvt. Ltd., Singapore. The expression of GAPDH was used as an internal calibrator for equal RNA loading and to normalize relative expression data for all other genes analyzed. The copy ratio of each analyzed cDNA was determined as the mean of 3 experiments. The real-time quantitative RT-PCR data were quantified using relative quantification (2^−ΔΔCT) method as described [Livak, K. J, and Schmittgen, T. D. (2001) Analysis of relative gene expression data using real-time quantitative PCR and the 2(-Delta Delta C(T)) method.

TIMP-1 gene transcript = assay: as above; type: cell-based; details: 5 μM peptide, IL-1β-induced
Text: as §1, §2, §3

MMP-9 gene transcript = assay: as above; type: cell-based
Text: as §1, §2, §3

MMP-2 gene transcript = assay: as above; type: cell-based
Text: as §1, §2, §3

MMP-1 gene transcript = assay: as above; type: cell-based
Text: as §1, §2, §3

TIMP-2 gene = assay: as above; type: cell-based; details: co-treatment with peptide, IL-1β-induced, normalized to GAPDH
Text: as §1, §2, §3

[1] = 5 μM peptide, IL-1β-induced, normalized to GAPDH
[2] = IL-1β-stimulated rabbit synovial fibroblasts in culture

T1 sequence (P41246 107-707): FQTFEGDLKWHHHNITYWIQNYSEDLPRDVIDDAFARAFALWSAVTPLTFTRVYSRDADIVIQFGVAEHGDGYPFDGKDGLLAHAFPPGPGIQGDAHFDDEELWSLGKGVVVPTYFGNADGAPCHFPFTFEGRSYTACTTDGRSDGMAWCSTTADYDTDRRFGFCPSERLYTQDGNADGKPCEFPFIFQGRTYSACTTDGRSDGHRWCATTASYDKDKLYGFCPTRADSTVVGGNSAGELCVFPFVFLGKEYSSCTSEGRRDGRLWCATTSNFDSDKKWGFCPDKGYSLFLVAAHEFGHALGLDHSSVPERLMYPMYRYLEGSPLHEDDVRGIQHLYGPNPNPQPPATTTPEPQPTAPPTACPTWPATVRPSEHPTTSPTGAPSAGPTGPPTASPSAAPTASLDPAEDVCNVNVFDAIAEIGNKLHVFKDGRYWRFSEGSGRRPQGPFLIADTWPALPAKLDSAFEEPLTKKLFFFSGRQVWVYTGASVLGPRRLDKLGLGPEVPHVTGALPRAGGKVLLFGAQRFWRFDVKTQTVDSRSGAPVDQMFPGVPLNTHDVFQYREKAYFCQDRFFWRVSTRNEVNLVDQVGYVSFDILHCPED

SMILES: CC[C@H](C)[C@H](NC(=O)[C@H](CC(=O)O)NC(=O)[C@@H](N)C(C)C)C(=O)N[C@@H](Cc1c[nH]cn1)C(=O)N[C@H](C(=O)N[C@@H](Cc1c[nH]c2ccccc12)C(=O)N[C@@H](CC(=O)O)C(=O)NCC(=O)N[C@H](C(=O)N[C@H](C(=O)N[C@@H](CC(=O)O)C(=O)N[C@H](C(=O)N[C@@H](Cc1c[nH]cn1)C(=O)N[C@H](C(=O)N[C@@H](Cc1c[nH]c2ccccc12)C(=O)N[C@@H](CC(=O)O)C(=O)NCC(=O)N[C@H](C(=O)O)C(C)C)C(C)C)[C@@H](C)CC)C(C)C)C(C)C)C(C)C [PIP [59-67] dimer] (H-VDIHVWDGVVDIHVWDGV-OH; N-terminus and C-terminus assumed)
- MMP-9 gelatinase activity vs control (MMP-9): insignificant
- sPLA2 mRNA expression level (sPLA2 gene transcript; [1]): significantly inhibited; also recorded: significantly suppressed
- decrease of sPLA2 mRNA expression (sPLA2 gene transcript; [2]): > 1 fold
- TIMP-1 mRNA expression level (TIMP-1 gene transcript): significantly suppressed
- MMP-9 mRNA expression level (MMP-9 gene transcript; [1]): significantly inhibited; also recorded: significantly suppressed
- decrease of MMP-9 mRNA expression (MMP-9 gene transcript; [2]): > 1 fold
- MMP-2 mRNA expression level (MMP-2 gene transcript; [1]): significantly inhibited; also recorded: significantly suppressed
- decrease of MMP-2 mRNA expression (MMP-2 gene transcript; [2]): > 1 fold
- MMP-1 mRNA expression level (MMP-1 gene transcript; [1]): significantly inhibited; also recorded: significantly suppressed
- decrease of MMP-1 mRNA expression (MMP-1 gene transcript; [2]): > 1 fold
- TIMP-2 gene expression (TIMP-2 gene): significantly inhibited
